Source: patent US10208034B2, “Quinoline derivative” (ONO PHARMACEUTICAL CO., LTD., priority 2014, dated 2019)

Experiments:
Axl enzyme = molecular target: T1, Axl enzyme (Homo sapiens, UniProt P30530); assay: Measurement of Axl inhibitory activity (LanthaScreen TR-FRET, in vitro test); assay type: biochemical; details: Fluorescein-Poly GT substrate
T1 sequence (P30530 26-894): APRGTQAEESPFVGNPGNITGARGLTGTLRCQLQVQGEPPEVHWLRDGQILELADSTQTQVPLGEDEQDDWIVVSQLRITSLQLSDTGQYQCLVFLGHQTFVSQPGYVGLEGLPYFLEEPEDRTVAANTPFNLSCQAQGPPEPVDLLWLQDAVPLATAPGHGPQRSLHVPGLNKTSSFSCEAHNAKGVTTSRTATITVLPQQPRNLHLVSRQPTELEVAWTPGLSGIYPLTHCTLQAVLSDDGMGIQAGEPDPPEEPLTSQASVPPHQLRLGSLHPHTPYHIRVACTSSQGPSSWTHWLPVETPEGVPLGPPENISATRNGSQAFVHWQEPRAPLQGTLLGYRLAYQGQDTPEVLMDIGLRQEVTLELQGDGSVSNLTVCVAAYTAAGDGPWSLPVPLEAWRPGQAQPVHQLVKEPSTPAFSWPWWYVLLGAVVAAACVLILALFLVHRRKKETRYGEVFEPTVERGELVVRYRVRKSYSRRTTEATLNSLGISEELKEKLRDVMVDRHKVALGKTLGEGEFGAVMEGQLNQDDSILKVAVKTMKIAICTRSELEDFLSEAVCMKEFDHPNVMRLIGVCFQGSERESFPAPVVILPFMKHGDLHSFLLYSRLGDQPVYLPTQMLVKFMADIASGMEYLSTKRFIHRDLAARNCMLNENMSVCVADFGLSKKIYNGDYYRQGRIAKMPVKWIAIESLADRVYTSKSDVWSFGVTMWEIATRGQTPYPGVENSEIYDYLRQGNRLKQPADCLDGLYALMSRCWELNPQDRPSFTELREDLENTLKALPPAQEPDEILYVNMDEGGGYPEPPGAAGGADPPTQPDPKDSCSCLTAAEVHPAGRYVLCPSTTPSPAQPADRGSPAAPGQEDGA
Description: Axl enzyme inhibitory activity was measured by using LanthaScreen (registered trademark) system (Invitrogen) based on the attached instruction. The reagents used are shown below.
Reaction buffer solution: a solution containing 50 mmol/L HEPES (pH7.5), 0.01% Brij35, 10 mmol/L MgCl2 and 1 mmol/L EGTA was prepared by using purified water.
Test substance solution: a solution containing a test compound of 5-fold concentration with respect to the final concentration was prepared by 20-fold diluting a DMSO solution of test compound of each concentration with the reaction buffer solution.
Enzyme solution: a solution containing 400 ng/mL Axl enzyme was prepared by using the reaction buffer solution.
Substrate solution: a solution containing 45 μmol/L ATP and 500 nmol/L Fluorescein-Poly GT (Invitrogen) was prepared by using the reaction buffer solution.
Detection solution: a solution containing 20 mM EDTA and 4 nM PY20 (Invitrogen) was prepared by using Dilution B (Invitrogen).
A 10 mmol/L DMSO solution of the test compound was dispensed into a 96-well plate (Nunc), and, furthermore, a 3-fold dilution series was prepared using DMSO. In each well of the 96-well plate for measurement, 5 μL each of the reaction buffer solution containing DMSO was added to a Blank group and a medium group, and 5 μL of the test substance solution was added to the test substance group, respectively. Next, 10 μL/well of the reaction buffer solution was added to the Blank group, and 10 μL/well each of the enzyme solution was added to the medium group and the test compound group, followed by stirring at room temperature for 10 min. After the completion of stirring, 10 μL each of the substrate solution was added into each well, followed by stirring at room temperature with light shielded for one hour. After the completion of reaction, 25 μL each of the detection solution was added to each well, and stood still at room temperature with light shielded for 30 min. After standing sill, fluorescence intensity at 520 nm and 495 nm at the time of irradiation with exciting light of 340 nm was measured by using Analyst GT (Molecular Devices). The phosphorylation of the artificial substrate was quantified by Time-resolved Fluorescence Resonance Energy Transfer (TR-FRET). TR-FRET ratio was calculated by dividing 520 nm fluorescence signal by 495 nm fluorescence signal for each well, and the inhibition rate (%) in the test compound group was calculated based on the following mathematical formula. Inhibition rate (%)=[1−(TR-FRET ratio of test compound group−A)/(B−A)×100 [Math. 1] A: average value of TR-FRET ratios of Blank group B: average value of TR-FRET ratios of medium group
Values of 50% inhibition rate (IC50 values) of the test compound were calculated from the inhibition curve based on the inhibition rate of the test compounds in each concentration.

Ba/F3 Axl = molecular target: T2, Ba/F3 Axl (Homo sapiens, UniProt P30530); assay: Proliferation suppression rate using mouse pro-B cell line (Ba/F3 Axl) stably expressing Axl (CellTiter-Glo); assay type: cell-based; details: Ba/F3 Axl cells, 48 hours, read-out: IC50 value of proliferation suppression, Ba/F3 Axl
T2 sequence (P30530 1-894): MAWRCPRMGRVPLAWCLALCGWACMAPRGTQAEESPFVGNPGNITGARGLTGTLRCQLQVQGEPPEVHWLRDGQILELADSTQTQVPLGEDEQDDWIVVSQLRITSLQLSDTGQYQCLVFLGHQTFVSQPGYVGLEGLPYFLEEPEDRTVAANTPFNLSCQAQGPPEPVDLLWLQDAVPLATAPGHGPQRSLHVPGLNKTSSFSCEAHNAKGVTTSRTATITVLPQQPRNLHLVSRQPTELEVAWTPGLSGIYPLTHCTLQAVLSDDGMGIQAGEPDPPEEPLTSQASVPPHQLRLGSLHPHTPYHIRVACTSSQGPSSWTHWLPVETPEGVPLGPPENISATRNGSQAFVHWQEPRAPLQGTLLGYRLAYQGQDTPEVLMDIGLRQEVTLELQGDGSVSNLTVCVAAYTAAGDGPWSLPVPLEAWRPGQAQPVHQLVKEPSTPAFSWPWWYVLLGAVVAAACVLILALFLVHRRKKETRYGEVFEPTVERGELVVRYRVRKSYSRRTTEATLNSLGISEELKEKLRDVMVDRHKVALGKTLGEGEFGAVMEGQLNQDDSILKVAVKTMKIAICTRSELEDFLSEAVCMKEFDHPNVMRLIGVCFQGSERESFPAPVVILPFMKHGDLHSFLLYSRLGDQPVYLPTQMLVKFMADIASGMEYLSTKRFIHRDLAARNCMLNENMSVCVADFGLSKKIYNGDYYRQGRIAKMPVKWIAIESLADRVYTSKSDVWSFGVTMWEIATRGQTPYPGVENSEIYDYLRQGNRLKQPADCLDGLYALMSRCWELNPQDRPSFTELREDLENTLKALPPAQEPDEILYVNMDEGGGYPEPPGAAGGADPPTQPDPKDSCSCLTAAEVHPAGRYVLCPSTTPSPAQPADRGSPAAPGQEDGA
Description: A 0.1 mmol/L DMSO solution of the test compound was dispensed into a 96-well plate, and a 3-fold dilution series was prepared using DMSO. DMSO solutions of test compounds, having various concentrations, were further 500-fold diluted with a RPMI1640 medium (containing 10% HI-FBS, 1% penicillin) and a diluted solution of the test compound having […] with respect to the final concentration was prepared. In each well of the 96-well plate (BD Biosciences) for measurement, 50 μL of a RPMI medium was added to the Blank group, 50 μL of a RPMI medium containing 0.2% DMSO was added to the medium group, and 50 μL of the diluted solution of the test compound was added to the test compound group, respectively. Ba/F3 Axl was diluted with a medium to have a density of 2×10^5 cells/mL to prepare a cell suspension. In each well of the 96-well plate for measurement, 50 μL each of the RPMI medium was added to the Blank group, and 50 μL each of the cell suspension to the medium group and the test compound group, respectively, and the groups were stood still at 37° C. at 5% CO2 for 48 hours. After standing still, Relative Light Unit (RLU) was measured by using CELLTITER-GLO (registered trademark) LUMINESCENT CELL VIABILITY ASSAY (Promega). The measurement was carried out according to the attached instruction. To each well, 100 μL each of light-emitting solution was added. The plate was stirred at room temperature for 3 min and then stool still at room temperature with light shielded for 10 min, and RLU was measured by using Microplate Reader (SpectraMax M5e, Molecular Devices). The average values of RLU of the Blank group and the medium group were respectively calculated, and the proliferation suppression rate of the test compound group was calculated. Proliferation suppression rate (%)={1−(RLU of test compound group−A)/(B−A)}×100 [Math. 2] A: average value of RLU of Blank group B: average value of RLU of medium group
A value of 50% inhibition rate (IC50 value) of the test compound was calculated from the inhibition curve based on the inhibition rate in each concentration of the test compound.

KDR kinase = KDR kinase (Homo sapiens, UniProt P35968); assay: Evaluation of kinase selectivity (KDR kinase IC50 versus Axl IC50, in vitro test); assay type: biochemical; details: Axl selective inhibitory activity with respect to KDR kinase, ratio of IC50 values
Chain of KDR kinase (P35968 20-1356): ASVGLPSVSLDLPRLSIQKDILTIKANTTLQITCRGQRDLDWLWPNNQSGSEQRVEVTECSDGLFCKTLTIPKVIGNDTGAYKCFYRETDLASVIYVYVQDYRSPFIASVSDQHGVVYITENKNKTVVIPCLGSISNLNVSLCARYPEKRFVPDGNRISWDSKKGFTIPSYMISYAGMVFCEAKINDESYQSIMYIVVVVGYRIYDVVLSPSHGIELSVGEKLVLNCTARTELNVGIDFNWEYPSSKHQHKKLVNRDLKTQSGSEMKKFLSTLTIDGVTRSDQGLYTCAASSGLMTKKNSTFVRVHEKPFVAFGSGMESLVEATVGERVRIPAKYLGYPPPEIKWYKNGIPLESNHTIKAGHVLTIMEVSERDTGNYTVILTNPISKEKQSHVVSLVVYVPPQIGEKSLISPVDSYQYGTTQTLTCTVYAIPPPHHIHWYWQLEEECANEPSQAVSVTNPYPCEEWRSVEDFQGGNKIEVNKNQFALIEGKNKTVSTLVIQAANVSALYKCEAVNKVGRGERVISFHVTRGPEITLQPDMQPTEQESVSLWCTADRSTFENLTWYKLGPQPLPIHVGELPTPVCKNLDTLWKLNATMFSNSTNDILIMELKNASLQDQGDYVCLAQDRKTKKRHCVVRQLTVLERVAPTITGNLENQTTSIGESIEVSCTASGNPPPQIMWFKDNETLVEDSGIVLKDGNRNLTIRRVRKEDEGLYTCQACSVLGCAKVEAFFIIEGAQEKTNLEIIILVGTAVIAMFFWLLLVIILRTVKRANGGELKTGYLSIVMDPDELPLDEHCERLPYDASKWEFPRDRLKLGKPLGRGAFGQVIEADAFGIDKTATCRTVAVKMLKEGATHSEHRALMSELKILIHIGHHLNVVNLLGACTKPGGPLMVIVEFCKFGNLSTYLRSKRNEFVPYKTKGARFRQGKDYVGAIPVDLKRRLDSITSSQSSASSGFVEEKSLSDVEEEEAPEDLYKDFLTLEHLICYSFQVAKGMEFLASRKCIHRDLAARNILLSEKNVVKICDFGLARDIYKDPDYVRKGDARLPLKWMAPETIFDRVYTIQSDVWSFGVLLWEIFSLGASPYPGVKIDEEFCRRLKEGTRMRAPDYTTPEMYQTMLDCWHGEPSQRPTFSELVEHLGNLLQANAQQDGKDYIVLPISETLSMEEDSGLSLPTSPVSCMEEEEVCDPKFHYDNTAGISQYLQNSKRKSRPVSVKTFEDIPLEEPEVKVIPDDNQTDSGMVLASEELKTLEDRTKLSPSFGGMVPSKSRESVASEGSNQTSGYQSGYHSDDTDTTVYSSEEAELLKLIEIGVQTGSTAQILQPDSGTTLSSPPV
Description: Similar to Biological Example 1, values of 50% inhibition rate (IC50 value) with respect to the KDR kinase of the test compound was measured. The Axl selective inhibitory activity of the test compound with respect to KDR kinase was calculated based on the above-mentioned ratio of the IC50 values. As the test compounds, for the compounds of the present invention, the compounds of Examples 21, 42, 66, and 28 were used, and for the comparative compounds, the compound of Example 74 (Comparative compound B) and the compound of Example 92 (Comparative compound C) described in Patent Literature 5, having the following structure, were used.

IC50 (Axl enzyme) [nM]	GI50 (Ba/F3 Axl) [nM]	KDR [IC50]/Ax1 [IC50] (KDR kinase)	Structure (SMILES)
> 10000	> 10000	–	COc1cc2nccc(Oc3ccc(NC(=O)c4cc5ccccc5[nH]c4=O)cc3)c2cc1OC [Comparative compound A, reference compound]
–	–	about 0.2 times	COc1cc2c(Oc3ccc(NC(=O)c4cccc5cccnc45)cc3F)ccnc2cc1OCCCN1CCOCC1 [Comparative compound B, reference compound]
–	–	about 28 times	COc1cc2c(Oc3ccc(NC(=O)c4ccnn(-c5ccc(F)cc5)c4=O)cn3)ccnc2cc1OCCCN1CCOCC1 [Comparative compound C, reference compound]
1.5	0.47	–	CC#CC(=O)N1CCc2cc(C(=O)Nc3ccc(Oc4ccnc5cc(OC)c(OC)cc45)cn3)c(=O)n(-c3ccccc3)c2C1 [Example 36, 7-(2-butynoyl)-N-{5-[(6,7-dimethoxy-4-quinolinyl)oxy]-2-pyridinyl}-2-oxo-1-phenyl-1,2,5,6,7,8-hexahydro-1,7-naphthyridine-3-carboxamide]
4	0.76	–	COc1cc2nccc(Oc3ccc(NC(=O)c4cc5ccc(N)cc5n(-c5ccccc5)c4=O)nc3)c2cc1OC [Example 73, 7-amino-N-{5-[(6,7-dimethoxy-4-quinolinyl)oxy]-2-pyridinyl}-2-oxo-1-phenyl-1,2-dihydro-3-quinolinecarboxamide]
